Experiments:
[1] = tested on: bleomycin-induced lung fibrosis; test: Mouse bleomycin-induced lung fibrosis model, therapeutic study; type: in vivo; settings: 30 mg/kg b.i.d. oral gavage starting 7 days after bleomycin; male and female mice; 14 days
Experimental: Age and gender-matched wild type mice on the C57BL/6 background were utilized for this study, as outlined in Table 3: Mice were housed in a sterile barrier facility and given a single inhaled dose of 1.25 Units/kg pharmacologic grade bleomycin (Teva Pharmaceuticals, Israel) in a volume of 50 μl. Mice received twice daily administered IGP001, via oral gavage, on a b.i.d. schedule starting 7 days after bleomycin treatment in this therapeutic study. Mice were sacrificed at 14 days following the administration of bleomycin and assessed as appropriate for deposited collagen in the lungs using Masson's Trichrome stain.

ERK = test: TGF-β1-induced ERK activation in human lung fibroblasts (Western blot); type: cell-based; settings: HFL-1 cells; TGF-β1 1 ng/ml
Experimental: IGP001 and IGP002 are shown to affect TGF-β1-induced MAP kinase activities in human lung fibroblasts. Human fetal lung fibroblasts (HFL-1) (ATCC, Rockville, Md.) are cultured in Ham's F12K medium (American Type Culture Collection) supplemented with 50 U/ml penicillin G sodium, 50 μg/ml streptonycin sulfate (GIBCO BRL, Life Technologies, Inc., Rockville, Md.) and 10% fetal bovine serum (FBS; Equitech-Bio. Inc., Ingram, Tex.) and maintained in humidified 5% CO2 at 37° C. After reaching confluence, the serum content of the medium is reduced to 0.4% FBS for 24 h. The cells are then stimulated with 1 ng/ml TGF-β1 to produce CTGF.
To test the ability of IGP001 and IGP002 to suppress activation of JNK, HFL-1 cells are cultured with 0.1% DMSO (control vehicle), IGP001 or IGP002 at a concentration of […] for 30 minutes, followed by stimulation with TGF-β1 (1 ng/ml) for 30 minutes. Activities of JNK, p38 MAP kinase and ERK are determined by Western blotting whole cell lysates using antibodies specific for phosphorylated, activated forms of JNK, p38 MAP kinase, and ERK. Two identical experiments independently performed yielded similar results.

JNK3 = JNK3 (Homo sapiens, UniProt P53779); test: In vitro JNK3 inhibition (Table 1); type: biochemical
Sequence of JNK3 (P53779 whole entry, species assumed): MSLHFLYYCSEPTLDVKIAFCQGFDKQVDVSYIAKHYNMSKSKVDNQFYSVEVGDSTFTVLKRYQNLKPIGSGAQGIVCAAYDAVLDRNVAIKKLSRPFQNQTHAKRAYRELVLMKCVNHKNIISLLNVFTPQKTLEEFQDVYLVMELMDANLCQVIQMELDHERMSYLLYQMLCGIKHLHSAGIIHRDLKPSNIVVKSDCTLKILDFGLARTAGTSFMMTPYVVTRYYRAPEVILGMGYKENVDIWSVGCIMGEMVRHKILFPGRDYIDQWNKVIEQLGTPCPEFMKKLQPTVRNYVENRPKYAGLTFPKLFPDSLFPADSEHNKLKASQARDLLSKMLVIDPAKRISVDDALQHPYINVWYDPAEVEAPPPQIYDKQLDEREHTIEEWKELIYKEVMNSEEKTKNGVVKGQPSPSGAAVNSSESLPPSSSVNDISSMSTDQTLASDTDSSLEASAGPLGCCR
Experimental: (§1) In vitro assays for the determination of JNK activities are known in the art and exemplary assay formats are described herein.
(§2) IC50 values in Table 1 were determined using the procedures as described in U.S. Pat. No. 8,450,353.

[2] = Rat PK/PD study: plasma compound levels by LC/MS; type: in vivo; settings: female Wistar rats; kainic acid 60 minutes after compound; blood 4 hours post kainic acid
Experimental: Plasma compound levels for two of the JNK inhibitors, IGP001 (Formula (XXI)) and IGP002 (Formula (XXII)), were obtained using a rat model for pharmaceutical administration of the compounds. Female Wistar rats, 7-9 weeks old, were obtained (SLAC Laboratory Animal Co. Ltd., Shanghai, China), and three groups of animals (n=3 each) received 1) kainic acid and 2) either IGP001 in vehicle, IGP002 in vehicle, or vehicle alone. The animals received the kainic acid 60 minutes after they received the IGP001 in vehicle, IGP002 in vehicle, and or vehicle alone.
For administration, the kainic acid was dissolved in saline, and introduced to the rats using the protocol as generally disclosed in Tse K, Puttachary S, Beamer E, Sills G J, Thippeswamy T (2014) PLoS One 9:e96622. Animals in each group were surgically implanted with catheters in carotid artery using polyurethane tubing and heparin (50 IU/mL)/glucose (50%) solutions as the lumen lock solution. Anaesthetic barbital was used during the surgery. The animals were allowed to recover seven days after surgery.
The animals were euthanized 4 hours post kainic acid administration using CO2 inhalation and blood was collected via cardiac puncture. 5 mL blood was transferred into pre-labled plastic microcentrifuge tubes containing K2-EDTA (0.5M) as anti-coagulant. Plasma levels were determined by a validated LC/MS analysis.

[3] = tested on: thioacetamide-induced liver fibrosis; test: Thioacetamide-induced rat model of liver fibrosis; type: in vivo; settings: 10 mg/kg/day p.o.
Experimental: The antifibrotic effects of IGP001 and IGP002 are also evaluated in a thioacetamide-induced rat model of liver fibrosis. Study assessments include body and liver/kidney weight, liver function test, liver/kidney morphology and collagen deposition, fibrogenic gene and protein expression, and pharmacokinetic analyses.

JNK1 = JNK1 (Homo sapiens, UniProt P45983); test: In vitro JNK1 inhibition (Table 1); type: biochemical
Sequence of JNK1 (P45983 whole entry, species assumed): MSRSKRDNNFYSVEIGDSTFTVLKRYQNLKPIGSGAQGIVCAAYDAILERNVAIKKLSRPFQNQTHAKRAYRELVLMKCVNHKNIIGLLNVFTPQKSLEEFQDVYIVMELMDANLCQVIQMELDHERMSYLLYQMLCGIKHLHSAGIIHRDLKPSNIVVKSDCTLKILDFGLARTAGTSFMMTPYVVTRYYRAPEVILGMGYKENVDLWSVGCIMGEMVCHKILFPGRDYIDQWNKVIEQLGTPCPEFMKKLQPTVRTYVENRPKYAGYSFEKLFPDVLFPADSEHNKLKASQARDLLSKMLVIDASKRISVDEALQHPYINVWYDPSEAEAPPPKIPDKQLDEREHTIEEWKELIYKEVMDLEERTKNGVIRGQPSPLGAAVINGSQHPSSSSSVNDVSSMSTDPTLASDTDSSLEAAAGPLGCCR
Experimental: as §1, §2

[4] = tested on: monocyte/macrophage recruitment; test: Monocyte/macrophage recruitment in vivo (Example 9); settings: 10 mg/kg/day p.o.; model not specified
[5] = tested on: bleomycin-induced lung fibrosis; test: Mouse bleomycin-induced lung fibrosis model, preventative study; type: in vivo; settings: 10 mg/kg and 30 mg/kg b.i.d. oral gavage starting prior to bleomycin; 14 days
Experimental: Age and gender-matched wild type mice on the C57BL/6 background were utilized for this study, which is outlined in Table 1: Mice are housed in a sterile barrier facility at the Yale University School of Medicine and all proposed procedures are approved on existing mouse protocols. Mice were given a single inhaled dose of 1.25 Units/kg pharmacologic grade bleomycin (Teva Pharmaceuticals, Israel) in a volume of 50 μl. Mice received twice daily administered IGP001, via oral gavage, on a b.i.d. schedule starting prior to bleomycin treatment in this preventative study. Mice were sacrificed at 14 days following the administration of bleomycin and assessed as appropriate for the outcomes shown in Table 2: Briefly, lung inflammation was assessed by Bronchoalveolar lavage cell counts. Total soluble lung collagen will be quantified using Sircol Assay (Biocolour, Ireland). Formalin fixed, paraffin embedded mouse lung sections were stained with hematoxylin and eosin to assess gross morphology, morphometry, and Ashcroft scores and with Masson's trichrome stains to visualize collagen deposition.

JNK2 = JNK2 (Homo sapiens, UniProt P45984); test: In vitro JNK2 inhibition (Table 1); type: biochemical
Sequence of JNK2 (P45984 whole entry, species assumed): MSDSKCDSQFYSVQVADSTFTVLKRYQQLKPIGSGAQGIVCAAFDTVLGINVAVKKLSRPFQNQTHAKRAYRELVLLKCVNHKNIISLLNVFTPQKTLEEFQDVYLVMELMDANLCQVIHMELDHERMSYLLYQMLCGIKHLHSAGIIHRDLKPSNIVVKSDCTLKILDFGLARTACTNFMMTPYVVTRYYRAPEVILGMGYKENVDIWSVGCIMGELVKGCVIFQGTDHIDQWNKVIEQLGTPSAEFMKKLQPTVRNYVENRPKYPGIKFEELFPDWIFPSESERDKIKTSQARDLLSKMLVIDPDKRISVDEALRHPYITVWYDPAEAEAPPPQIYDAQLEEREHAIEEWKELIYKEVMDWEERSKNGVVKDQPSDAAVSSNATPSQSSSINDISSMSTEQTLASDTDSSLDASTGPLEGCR
Experimental: as §1, §2

IC50 (JNK3): < 100 nM | IC50 (JNK1): < 100 nM | IC50 (JNK2): < 100 nM
Structure (SMILES): O=C(Cn1c(=O)ccc2cc(C(F)(F)F)ccc21)Nc1scc(Br)c1-c1nnc[nH]1 [IGP001, N-(4-bromo-3-(1H-1,2,4-triazol-5-yl)thiophen-2-yl)-2-(2-oxo-6-(trifluoromethyl)quinolin-1(2H)-yl)acetamide]
deposited collagen in the lungs (Masson's Trichrome stain) [1]: significantly reduced deposited collagen | TGF-β1-induced ERK activation (ERK): but not p38 MAP Kinase or ERK Activation | plasma compound levels versus cellular EC50 [2]: sufficient compound in the plasma of treated animals to exceed cellular EC50 in the periphery | non-alcoholic fatty liver disease activity score ([3]; thioacetamide-induced NASH model): significantly reduce the non-alcoholic fatty liver disease activity score | collagen deposition ([3]; thioacetamide-induced model): significant reductions in collagen deposition | collagen type 1 protein and mRNA expression ([3]; thioacetamide-induced model): significant reductions in collagen deposition, and collagen type 1 protein and mRNA expression | monocyte/macrophage recruitment in vivo [4]: significantly reduce monocyte/macrophage recruitment | deposited collagen (Masson's trichrome stain) [5]: reduced deposited collagen

Reference: patent publication US20190231751A1, “TREATMENT OF FIBROTIC DISORDERS WITH JUN N-TERMINAL KINASE INHIBITORS” (Imago Pharmaceuticals, Inc., priority 2016, published 2019)
